Laboratory results published in patent publication US8389468B2, “Approach to the treatment of compartment syndrome” (Lantmannen AS-Faktor AB, priority 2006, dated 2013).
Entries after “also recorded” stand apart in the source; their conditions may differ.

Assays:
sciatic nerve = assay: Sciatic nerve crush, intraneural pressure; assay type: in vivo, rat
Description: Peripheral and autonomic nerves are all delimited by an endoneurium, an perineurium and outermost an epineurium. Multiple nerve fascicles form a nerve (Cf. Hansson et al., 1987). Tendons and some of the ligaments in a body are delimited by a tender collagen membrane-like structure, the synovial sheath. The inner border layer of the latter connect the tendon with its synovial vagina, which enable sliding at minimal friction. The periphery of the latter structure is enclosed by a fibrous, membrane-like layer, the fibrous vagina. The enclosing paratendinium is in some locations hold in position and receiving nutrition by mesotendons and by vinculae (Cf. Hansson et al., 1980). […] Such a procedure resulted not only in impaired nerve function and structure but also in impaired blood and lymph circulation, and caused swelling of the sciatic nerve, the development of oedema, which included adjacent and enveloping structures, The IFP turned elevated, as assessed by the insertion of a Samba fibre optic pressure measuring probe in the affected tissue. […] The pressure in the perineurium was determined to become elevated in a day in those treated with just the vehicle, in agreement with the macroscopically recognized swelling and local oedema, i.e. having developed a CS. […]

HSV-1 = assay: PCR of HSV-1 DNA copies in brain tissue, rats; assay type: in vivo, rat; details: 1 or 10 pg intranasally twice daily
Description: FIG. 5: Quantitative PCR performed on brain tissues from rats infected in their right nostril with HSV-1. The brain specimens were obtained between 5 to 14 days after virus inoculation in the right nostril.
The improved survival of the HSV-1 infected rodents, as illustrated in example #2, could tentatively be due to that AF-16 blocked or at least reduced the proliferation of HSV1 virus in the infected brain. Therefore, adult rats were infected by having a solution of the herpes simplex virus type 1 (HSV-1; strain 2762, batch 041028; 1.7×10^7 PFU/mL) instilled in their right nostril. Half of the infected animals received 10 min later 25 pL (1 or 10 pg) of AF-16 in their right nostril, and had thereafter the same dose of AF-16 instilled every morning at 8 AM and every night at 6 PM until the experiment was terminated on day 6. The other groups of the HSV-1 infected rats received at the same time intervals 25 μL of the vehicle, PBS. The animals were closely watched for signs of general sickness and of behavioral and motor dysfunction. The animals were sacrificed by an overdose of anesthetics on day 6, the skull was then rapidly opened and the brain removed. […]

intervertebral discs = assay: Injured or loaded intervertebral discs; assay type: in vivo, rodents, rabbits and pigs
Description: The intervertebral discs, which separate the vertebral bodies in the spine, adjust their dimensions according to the actual load many times a day. The water content in the avascular nucleus pulposus and the annulus fibrosus in a disc is dependant on the supply of fluid, ions, nutrients and oxygen from adjacent ligaments and from the end plates of the vertebrae (Cf. Holm et al., 2007). Vast products from an avascular disc must pass through the same obstacles prior to reaching vascular systems. Therefore, rodents, rabbits and pigs have been assessed regarding effects of AF protein and of AF peptides with regard to effects on the intervertebral discs when loaded and unloaded. […] It is thus disclosed that the AF compounds are beneficial in reducing the swelling and tissue damage at trauma or deformation and/or excessive load on intervertebral discs.

pericardium = assay: Traumatized pericardium, fluid accumulation; assay type: in vivo, rat; details: treated for a week after rubbing of pericardium
Description: Adult rats had experimentally a CC condition induced affecting the pericardium and assessed with regard to effects of treatment with the peptide AF-16. The pericardial cavity is delimiting the heart, forming a sac filled with a minimal volume of fluid, enabling accommodation of the sliding movements resulting from the sudden and forceful contractions of the heart. The pericardial cavity is towards its periphery enclosed by a parietal membrane rich in collagen. On anaesthetized rats the pericardium was opened surgically, through a small “window” in the diaphragm and mediastinum. The inside of the pericardium was traumatized by rubbing it surgically through the incision. These animals were divided in two groups, one treated with AF-16 while the other had just the vehicle, PBS. […] In contrast, those animals that after the rubbing had been treated with the vehicle had their pericardium filled with fluid under pressure, and had further numerous fibrin strands and inflammatory cells. Additionally, the parietal pericardial envelop was swollen, inflamed and infiltrated by numerous enlarged, in parts newly formed blood vessels.

[1] = system: ICP after subarachnoidally deposited blood; assay: Cerebral CS induced by autologous blood in the subarachnoid space, ICP; assay type: in vivo, Sprague-Dawley rats
Description: A different type of cerebral CS was induced by the injection of […] whole blood in the subarachnoid space, a procedure known from the literature to result in the development of brain oedema and elevated ICP. Anaesthetized adult rats had 50-350 pL heparinzed autologous blood deposited in the subarachnoid space through a small hole drilled in the occipital bone or by injection into the cistern magna through the atlanto-occipital membrane. Holes drilled in a skull bone were eventually plugged with SuperBond@ glue. Such treatments with subarachnoidally deposited blood increased the ICP, inducing the development of a CS in a day or within a week, the exact time depending on the conditions and amount of blood deposited, in agreement with reports in the medical literature. In our experiments, injection of 0.2-0.3 mL autologous, heparinized blood in the cisterna magna in adult Sprague-Dawley rats resulted within 1-3 days in an elevation of the ICP to 13 to 30 mm Hg, as assessed with an implanted miniature pressure light guided probe (Samba System 3200 & Samba Preclin 420 sensor; Samba Sensors AB, Gruvgatan 6, SE 42130 V. Frolunda, Sweden). The ICP in normal adult rats, either non-treated or having had phosphate buffered saline (PBS) injected instead, was 6-9 mm Hg. […] This means that AF-16 is abolishing and, in case of already established cerebral CS, reducing its severity. The prompt response to AF-16 was decisive for the beneficial effect exerted by AF-16.

VCHSKTRSNPENNVGL [AF-16]
intraneural pressure (sciatic nerve; crushed sciatic nerve, high dose from time of injury): slightly elevated or close to that measured in a normal nerve
inflammation, oedema and tissue distortion (light microscopy) (sciatic nerve; injured sciatic nerves): reduced the inflammation and the oedema and the tissue distortion
HSV-1 DNA copies in brain tissue vs vehicle (HSV-1): no significant difference with regard to prevalence and distribution of HSV-1 DNA copies; also recorded: does not significantly affect the HSV-1 production
stiffness of intervertebral connections and deformation induced (intervertebral discs; after supramaximal loads or trauma, vs vehicle): closer to normal
damage to nucleus pulposus (light microscopy) (intervertebral discs; in vivo): less damage to the nucleus pulposus
swelling and inflammatory reactions of injured intervertebral discs (intervertebral discs; in vivo): reduced the swelling and the inflammatory reactions
fluid in pericardial cavity (pericardium): just minor accumulation of fluid in their pericardial cavity, at low pressure
ICP after treatment ([1]; 25 pg AF-16 intranasally twice daily): almost normal levels
brain, behavioral and motor function ([1]; 25 pg AF-16 intranasally twice daily, vs vehicle): neither signs of impaired brain function nor any gross obvious impairment of behavioral or motor functions
time for elevated ICP to turn to almost normal levels ([1]; 25 pg AF-16 intranasally twice daily, elevated ICP 13 to 30 mm Hg, normal 6-9 mm Hg): 1 to 2 h
extent and severity of brain damage ([1]; vs vehicle PBS): reduced the extent and severity of the brain damage
